From PubChem BioAssay AID248 (DTP/NCI, 2004)
“And” between values parts separate entries of the source, which are not always exact repeats. Equal values may be shown once. Toxic doses and inconclusive results are not listed. Rule as the data show it: active = T/C of 150% or more; inactive = T/C below 125%.

System: L1210 leukemia ip in BDF1 mice, survival T/C
Experiment: NCI In Vivo Anticancer Drug Screen. Data for tumor model L1210 Leukemia (intraperitoneal) in B6D2F1 (BDF1) mice
Details: endpoint: mean survival time, higher = longer survival
How it was run: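 Transplantable tumor model; survival measured in treated vs vehicle control mice. Value = treated/control.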

[1] = dose: 100.0 mg/kg/injection, schedule: Q01DX001 (ip), vehicle: carboxymethylcellulose (CMC)
[2] = dose: 200.0 mg/kg/injection, schedule: Q01DX001 (ip), vehicle: carboxymethylcellulose (CMC)
[3] = dose: 400.0 mg/kg/injection, schedule: Q01DX001 (ip), vehicle: carboxymethylcellulose (CMC)
[4] = dose: 100.0 mg/kg/injection, schedule: Q01DX009 (ip), vehicle: Klucel (hydroxypropylcellulose) (HPC)
[5] = dose: 100.0 mg/kg/injection, schedule: Q04DX003 (ip), vehicle: Klucel (hydroxypropylcellulose) (HPC)
[6] = dose: 200.0 mg/kg/injection, schedule: Q01DX009 (ip), vehicle: Klucel (hydroxypropylcellulose) (HPC)
[7] = dose: 200.0 mg/kg/injection, schedule: Q04DX003 (ip), vehicle: Klucel (hydroxypropylcellulose) (HPC)
[8] = dose: 400.0 mg/kg/injection, schedule: Q01DX009 (ip), vehicle: Klucel (hydroxypropylcellulose) (HPC)
[9] = dose: 400.0 mg/kg/injection, schedule: Q04DX003 (ip), vehicle: Klucel (hydroxypropylcellulose) (HPC)

Measured: T/C

CO[C@H]1C[C@H](O[C@H]2CC[C@]3(C=O)[C@H]4CC[C@]5(C)[C@@H](C6=CC(=O)OC6)CC[C@]5(O)[C@@H]4CC[C@]3(O)C2)O[C@H](C)[C@H]1O[C@@H]1O[C@H](CO[C@@H]2O[C@H](CO)[C@@H](O)[C@H](O)[C@H]2O)[C@@H](O)[C@H](O)[C@H]1O
inactive: dose: 0.25 mg/kg/injection, schedule: Q01DX001 (sc), vehicle: steriod suspending solution 98 % of control | dose: 0.5 mg/kg/injection, schedule: Q01DX001 (sc), vehicle: steriod suspending solution 96 % of control | dose: 1.0 mg/kg/injection, schedule: Q01DX001 (sc), vehicle: steriod suspending solution 98 % of control | dose: 2.0 mg/kg/injection, schedule: Q01DX001 (sc), vehicle: steriod suspending solution 98 % of control

O=c1[nH]c2c(Cl)cc(Cl)cc2c2ccccc12
inactive: [1] 87 % of control | [2] 92 % of control | [3] 100 % of control

OCC1OC(n2ccc3c([Se]Cc4ccccc4)ncnc32)C(O)C1O (configuration not stated)
inactive: dose: 0.78 mg/kg/injection, schedule: Q01DX009 (ip), vehicle: saline 101 % of control | dose: 1.56 mg/kg/injection, schedule: Q01DX009 (ip), vehicle: saline 105 % of control | dose: 3.12 mg/kg/injection, schedule: Q01DX009 (ip), vehicle: saline 109 % of control | dose: 6.25 mg/kg/injection, schedule: Q01DX009 (ip), vehicle: saline 86 % of control | dose: 12.5 mg/kg/injection, schedule: Q01DX005 (ip), vehicle: saline 100 % of control | dose: 25.0 mg/kg/injection, schedule: Q01DX005 (ip), vehicle: saline 101 % of control

CCN(CC)CCC(CC=C(C)C)(C(N)=O)c1cccc2ccccc12 (configuration not stated)
inactive: dose: 5.0 mg/kg/injection, schedule: Q04DX003 (ip), vehicle: saline with Tween-80 98 % of control | dose: 10.0 mg/kg/injection, schedule: Q04DX003 (ip), vehicle: saline with Tween-80 100 % of control | dose: 20.0 mg/kg/injection, schedule: Q04DX003 (ip), vehicle: saline with Tween-80 109 % of control

CCCS(=O)(=O)N(CC(=O)O)Cc1ccccc1
inactive: dose: 50.0 mg/kg/injection, schedule: Q01DX009 (ip), vehicle: other 110 % of control | dose: 100.0 mg/kg/injection, schedule: Q01DX009 (ip), vehicle: other 106 % of control and 107 % of control | dose: 100.0 mg/kg/injection, schedule: Q04DX003 (ip), vehicle: saline with Tween-80 101 % of control | dose: 200.0 mg/kg/injection, schedule: Q01DX009 (ip), vehicle: other 112 % of control and 115 % of control | dose: 200.0 mg/kg/injection, schedule: Q04DX003 (ip), vehicle: saline with Tween-80 104 % of control | dose: 400.0 mg/kg/injection, schedule: Q01DX009 (ip), vehicle: other 104 % of control | dose: 400.0 mg/kg/injection, schedule: Q04DX003 (ip), vehicle: saline with Tween-80 100 % of control

COc1ccccc1-n1c(O)c(N=Nc2ccccc2C)c(=O)n(-c2ccc(C)cc2)c1=S
inactive: dose: 37.5 mg/kg/injection, schedule: Q01DX001 (ip), vehicle: Klucel (hydroxypropylcellulose) (HPC) 102 % of control | dose: 75.0 mg/kg/injection, schedule: Q01DX001 (ip), vehicle: Klucel (hydroxypropylcellulose) (HPC) 99 % of control | dose: 150.0 mg/kg/injection, schedule: Q01DX001 (ip), vehicle: Klucel (hydroxypropylcellulose) (HPC) 89 % of control

O=C1CCCCCCCCCCCCCCO1
inactive: dose: 100.0 mg/kg/injection, schedule: Q04DX002 (ip), vehicle: Klucel (hydroxypropylcellulose) (HPC) 96 % of control | dose: 200.0 mg/kg/injection, schedule: Q04DX002 (ip), vehicle: Klucel (hydroxypropylcellulose) (HPC) 90 % of control | dose: 400.0 mg/kg/injection, schedule: Q04DX002 (ip), vehicle: Klucel (hydroxypropylcellulose) (HPC) 93 % of control

Cc1cc(Cl)ccc1NC(=O)c1ccc(Cl)cc1Cl
inactive: [4] 96 % of control | [5] 95 % of control | [6] 91 % of control | [7] 92 % of control | [8] 94 % of control | [9] 88 % of control

Oc1ccc(/C=N/N2CCOCC2)c(O)c1
inactive: [1] 100 % of control and 110 % of control | dose: 100.0 mg/kg/injection, schedule: Q01DX009 (ip), vehicle: carboxymethylcellulose (CMC) 97 % of control | dose: 100.0 mg/kg/injection, schedule: Q04DX002 (ip), vehicle: carboxymethylcellulose (CMC) 92 % of control and 89 % of control | dose: 100.0 mg/kg/injection, schedule: Q04DX003 (ip), vehicle: carboxymethylcellulose (CMC) 95 % of control and 103 % of control | [2] 98 % of control and 110 % of control | dose: 200.0 mg/kg/injection, schedule: Q01DX009 (ip), vehicle: carboxymethylcellulose (CMC) 95 % of control | dose: 200.0 mg/kg/injection, schedule: Q04DX002 (ip), vehicle: carboxymethylcellulose (CMC) 96 % of control and 103 % of control | dose: 200.0 mg/kg/injection, schedule: Q04DX003 (ip), vehicle: carboxymethylcellulose (CMC) 95 % of control and 90 % of control | [3] 98 % of control and 110 % of control | dose: 400.0 mg/kg/injection, schedule: Q01DX009 (ip), vehicle: carboxymethylcellulose (CMC) 88 % of control | dose: 400.0 mg/kg/injection, schedule: Q04DX002 (ip), vehicle: carboxymethylcellulose (CMC) 95 % of control and 86 % of control | dose: 400.0 mg/kg/injection, schedule: Q04DX003 (ip), vehicle: carboxymethylcellulose (CMC) 95 % of control and 87 % of control

O=c1ccc2c(COc3ccc(Cl)cc3Cl)c3ccc(O)cc3oc-2c1
inactive: [5] 99 % of control | [7] 99 % of control

C/C(=N\NC(N)=S)C(O)c1ccccc1 (configuration not stated)
inactive: dose: 5.0 mg/kg/injection, schedule: Q01DX001 (ip), vehicle: other 105 % of control | dose: 10.0 mg/kg/injection, schedule: Q01DX001 (ip), vehicle: other 100 % of control | dose: 20.0 mg/kg/injection, schedule: Q01DX001 (ip), vehicle: other 105 % of control | dose: 40.0 mg/kg/injection, schedule: Q01DX001 (ip), vehicle: other 100 % of control | dose: 80.0 mg/kg/injection, schedule: Q01DX001 (ip), vehicle: other 105 % of control

CC(=O)C(Cl)C(C)=O.CC(=O)C(Cl)C(C)=O.CO.CO.[Ni]
inactive: dose: 12.0 mg/kg/injection, schedule: Q01DX009 (ip), vehicle: other 91 % of control | dose: 25.0 mg/kg/injection, schedule: Q01DX009 (ip), vehicle: other 93 % of control | dose: 100.0 mg/kg/injection, schedule: Q01DX001 (ip), vehicle: saline 112 % of control | dose: 200.0 mg/kg/injection, schedule: Q01DX001 (ip), vehicle: saline 89 % of control

COc1ccc2c(c1)sc1ncnc(N)c12
inactive: dose: 50.0 mg/kg/injection, schedule: Q01DX009 (ip), vehicle: Klucel (hydroxypropylcellulose) (HPC) 105 % of control | [4] 105 % of control | [6] 101 % of control

CCc1ccc(-n2cnc3c(=O)[nH]c(N)nc32)cc1
inactive: dose: 25.0 mg/kg/injection, schedule: Q01DX001 (ip), vehicle: saline with Tween-80 86 % of control | dose: 50.0 mg/kg/injection, schedule: Q01DX001 (ip), vehicle: saline with Tween-80 88 % of control | dose: 100.0 mg/kg/injection, schedule: Q01DX001 (ip), vehicle: saline with Tween-80 91 % of control

CCCCC(CC)C(O)C1CCCCC1O (configuration not stated)
inactive: [4] 102 % of control | [5] 101 % of control | [6] 96 % of control | [7] 96 % of control | [8] 86 % of control | [9] 102 % of control

CCCCCC[Se]CCCCCC
inactive: dose: 12.5 mg/kg/injection, schedule: Q01DX009 (ip), vehicle: saline 98 % of control | dose: 25.0 mg/kg/injection, schedule: Q01DX009 (ip), vehicle: saline 96 % of control | dose: 25.0 mg/kg/injection, schedule: Q04DX003 (ip), vehicle: saline 101 % of control | dose: 50.0 mg/kg/injection, schedule: Q01DX009 (ip), vehicle: saline 93 % of control and 102 % of control | dose: 50.0 mg/kg/injection, schedule: Q04DX003 (ip), vehicle: saline 97 % of control | dose: 100.0 mg/kg/injection, schedule: Q04DX003 (ip), vehicle: saline 98 % of control and 100 % of control

CCc1nc2ccc(N=Cc3ccc(N(CCCl)CCCl)cc3C)cc2[nH]1
inactive: [5] 101 % of control | [7] 98 % of control | [9] 101 % of control

COC(=O)c1cc(NC(=O)Nc2ccc(Cl)cc2[N+](=O)[O-])cc(C(=O)OC)c1
inactive: [4] 92 % of control | [6] 101 % of control | [8] 93 % of control
